Laboratory results taken from ChEMBL document CHEMBL1201862, “PubChem BioAssay data set” (2004).
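1) Cells in 96-well plates. 2) Compound, 48 h, 5 concentrations. 3) Linear interpolation between surrounding doses. 4) Unreached endpoint = highest concentration. GI50 is the concentration that inhibits growth by half.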 The source made the active and inactive calls. Rule as the data show it: active = GI50 up to about 1.1 µM and inactive = higher. *1 amine or outer side, *2 acyl side, *3 side chain or, on linkers, in order; H or OH if unused. Where a SMILES comes first, the peptide text is derived from it. Bridges are numbered along the chain shown (N, C = ends). Roman numbers before positions name the chains, in order. [ ]: non-standard residue; d: D form. Actinocin(1to9) = Cc1c2oc3c(C)ccc(C(=O)[*:2])c3nc-2c(C(=O)[*:1])c(N)c1=O; NMeV = CN[CH](C(=O)O)C(C)C; Sar = CNCC(=O)O

Key:
Experiment in all cases: NCI anticancer screen, dose series, 48 h
OVCAR-3 = tested on: OVCAR-3
PC-3 = tested on: PC-3
IGROV-1 = tested on: IGROV-1
SK-MEL-5 = tested on: SK-MEL-5
SNB-75 = tested on: SNB-75
SF-539 = tested on: SF-539
CCRF-CEM = tested on: CCRF-CEM
SNB-19 = tested on: SNB-19
786-0 = tested on: 786-0
SK-MEL-28 = tested on: SK-MEL-28
KM12 = tested on: KM12
MDA-N = tested on: MDA-N
HL-60 = tested on: HL-60
NCI-H460 = tested on: NCI-H460
HCC 2998 = tested on: HCC 2998
NCI-H226 = tested on: NCI-H226
OVCAR-5 = tested on: OVCAR-5
MDA-MB-435 = tested on: MDA-MB-435
UACC-62 = tested on: UACC-62
ACHN = tested on: ACHN

For `O=C(O)c1cc2ccc3ccccc3c2oc1=O`, the GI50 (OVCAR-3) was > 100 µM (inactive), the GI50 (PC-3) was > 100 µM (inactive) and the GI50 (IGROV-1) was > 100 µM (inactive). The GI50 (SK-MEL-5) was > 100 µM (inactive), the GI50 (SNB-75) was > 100 µM (inactive) and the GI50 (SF-539) was > 100 µM (inactive). For the same compound, the GI50 (CCRF-CEM) was > 100 µM (inactive), the GI50 (SNB-19) was > 100 µM (inactive) and the GI50 (786-0) was > 100 µM (inactive). The GI50 (SK-MEL-28) was > 100 µM (inactive), the GI50 (KM12) was > 100 µM (inactive) and the GI50 (MDA-N) was > 100 µM (inactive). The GI50 (HL-60) was > 100 µM (inactive), the GI50 (NCI-H460) was > 100 µM (inactive) and the GI50 (HCC 2998) was > 100 µM (inactive). The GI50 (NCI-H226) was > 100 µM (inactive), the GI50 (OVCAR-5) was > 100 µM (inactive) and the GI50 (MDA-MB-435) was > 100 µM (inactive). The GI50 (UACC-62) was > 100 µM (inactive) and the GI50 (ACHN) was > 100 µM (inactive).

For `CC(C)NC(=O)OCc1c(COC(=O)NC(C)C)c(-c2cc[n+](COC(=O)C3CC3)cc2)n2c1CCC2`, the GI50 (OVCAR-3) was > 100 µM (inactive), the GI50 (PC-3) was > 100 µM (inactive) and the GI50 (IGROV-1) was > 100 µM (inactive). For the same compound, the GI50 (SK-MEL-5) was > 100 µM (inactive), the GI50 (SNB-75) was > 100 µM (inactive) and the GI50 (SF-539) was 42.2 µM (inactive). The GI50 (CCRF-CEM) was > 100 µM (inactive), the GI50 (SNB-19) was > 100 µM (inactive) and the GI50 (786-0) was > 100 µM (inactive). For the same compound, the GI50 (SK-MEL-28) was > 100 µM (inactive), the GI50 (KM12) was > 100 µM (inactive) and the GI50 (MDA-N) was > 100 µM (inactive). For the same compound, the GI50 (HL-60) was 86.7 µM (inactive), the GI50 (NCI-H460) was > 100 µM (inactive) and the GI50 (HCC 2998) was > 100 µM (inactive). For the same compound, the GI50 (NCI-H226) was > 100 µM (inactive), the GI50 (OVCAR-5) was > 100 µM (inactive) and the GI50 (MDA-MB-435) was > 100 µM (inactive). The GI50 (UACC-62) was > 100 µM (inactive) and the GI50 (ACHN) was 32.4 µM (inactive).

With `Oc1ccc([C@H]2c3c(O)cc(O)cc3C3c4c(cc(O)cc4[C@@H]2[C@H]2c4cc(O)cc5c4C(c4cc(O)cc(O)c4[C@@H]2c2ccc(O)cc2)[C@@H](c2ccc(O)cc2)O5)O[C@@H]3c2ccc(O)cc2)cc1` (stereo not given in full) the GI50 (OVCAR-3) was 0.569 µM (active), the GI50 (PC-3) was 0.391 µM (active) and the GI50 (IGROV-1) was 6.73 µM (inactive). For the same compound, the GI50 (SK-MEL-5) was 7.41 µM (inactive), the GI50 (SNB-75) was 0.5 µM (active) and the GI50 (SF-539) was 0.564 µM (active). For the same compound, the GI50 (CCRF-CEM) was 1.53 µM (inactive), the GI50 (SNB-19) was 3.35 µM (inactive) and the GI50 (786-0) was 4.94 µM (inactive). The GI50 (SK-MEL-28) was 0.182 µM (active), the GI50 (KM12) was 0.0211 µM (active) and the GI50 (MDA-N) was 0.871 µM (active). For the same compound, the GI50 (HL-60) was 2.48 µM (inactive), the GI50 (NCI-H460) was 3.89 µM (inactive) and the GI50 (HCC 2998) was 0.452 µM (active). For the same compound, the GI50 (NCI-H226) was > 100 µM (inactive), the GI50 (OVCAR-5) was 0.678 µM (active) and the GI50 (MDA-MB-435) was 2.59 µM (inactive). The GI50 (UACC-62) was 0.15 µM (active) and the GI50 (ACHN) was 6.93 µM (inactive).

In the case of `O=C(C(=O)n1ccc2ccccc21)c1c[nH]c2ccccc12`, the GI50 (OVCAR-3) is reported as > 10 µM (inactive), the GI50 (PC-3) is reported as > 10 µM (inactive) and the GI50 (IGROV-1) is reported as > 10 µM (inactive). The GI50 (SK-MEL-5) was > 10 µM (inactive), the GI50 (SNB-75) was > 10 µM (inactive) and the GI50 (SF-539) was > 10 µM (inactive). For the same compound, the GI50 (CCRF-CEM) was > 10 µM (inactive), the GI50 (SNB-19) was > 10 µM (inactive) and the GI50 (786-0) was > 10 µM (inactive). For the same compound, the GI50 (SK-MEL-28) was > 10 µM (inactive), the GI50 (KM12) was > 10 µM (inactive) and the GI50 (MDA-N) was > 10 µM (inactive). The GI50 (HL-60) was > 10 µM (inactive), the GI50 (NCI-H460) was > 10 µM (inactive) and the GI50 (HCC 2998) was > 10 µM (inactive). The GI50 (NCI-H226) was > 10 µM (inactive), the GI50 (OVCAR-5) was > 10 µM (inactive) and the GI50 (MDA-MB-435) was > 10 µM (inactive). For the same compound, the GI50 (UACC-62) was > 10 µM (inactive) and the GI50 (ACHN) was > 10 µM (inactive).

With `Cc1cccc(-c2cc(O)c3cc(C)cnc3n2)c1` the GI50 (OVCAR-3) was 0.143 µM (active), the GI50 (PC-3) was 0.189 µM (active) and the GI50 (IGROV-1) was 0.54 µM (active). The GI50 (SK-MEL-5) was 0.12 µM (active), the GI50 (SNB-75) was 0.157 µM (active) and the GI50 (SF-539) was 0.213 µM (active). For the same compound, the GI50 (CCRF-CEM) was 0.202 µM (active), the GI50 (SNB-19) was 0.366 µM (active) and the GI50 (786-0) was 0.361 µM (active). The GI50 (SK-MEL-28) was 1.63 µM (inactive), the GI50 (KM12) was 0.0869 µM (active) and the GI50 (MDA-N) was 0.0194 µM (active). For the same compound, the GI50 (HL-60) was 0.0338 µM (active), the GI50 (NCI-H460) was 0.311 µM (active) and the GI50 (HCC 2998) was 0.44 µM (active). For the same compound, the GI50 (NCI-H226) was 0.238 µM (active), the GI50 (OVCAR-5) was 0.414 µM (active) and the GI50 (MDA-MB-435) was 0.0185 µM (active). For the same compound, the GI50 (UACC-62) was 0.331 µM (active) and the GI50 (ACHN) was 0.532 µM (active).

With `CCC(C)C1NC(=O)C(NC(=O)c2c3nc4c(C(=O)NC5C(=O)NC(C(C)C)C(=O)N6CCCC6C(=O)N(C)CC(=O)N(C)C(C(C)C)C(=O)OC5C)ccc(C)c4oc-3c(C)c(=O)c2N)C(C)OC(=O)C(C(C)C)N(C)C(=O)CN(C)C(=O)C2CCCN2C1=O` (stereo not given) (I: TIP[Sar][NMeV] / II: TVP[Sar][NMeV]; ester I:1-I:C, II:1-II:C; linker I:N-II:N via Actinocin(1to9); configuration not given here) the GI50 (OVCAR-3) was 0.0185 µM (active), the GI50 (PC-3) was 0.000346 µM (active) and the GI50 (IGROV-1) was 0.00393 µM (active). The GI50 (SK-MEL-5) was < 0.0001 µM (active), the GI50 (SNB-75) was 0.00762 µM (active) and the GI50 (SF-539) was 0.00165 µM (active). For the same compound, the GI50 (CCRF-CEM) was 0.000421 µM (active), the GI50 (SNB-19) was < 0.0001 µM (active) and the GI50 (786-0) was 0.00042 µM (active). The GI50 (SK-MEL-28) was 0.000733 µM (active), the GI50 (KM12) was 0.00016 µM (active) and the GI50 (MDA-N) was 0.000135 µM (active). The GI50 (HL-60) was 0.000513 µM (active), the GI50 (NCI-H460) was < 0.0001 µM (active) and the GI50 (HCC 2998) was 0.237 µM (active). The GI50 (NCI-H226) was 0.0101 µM (active), the GI50 (OVCAR-5) was 0.000586 µM (active) and the GI50 (MDA-MB-435) was 0.000513 µM (active). The GI50 (UACC-62) was 0.00589 µM (active) and the GI50 (ACHN) was 0.000647 µM (active).
